The NIST ThermoML archive (doi:10.1016/j.tca.2012.09.009)

Assay: osmotic coefficient (dimensionless); mn = molality of the nth substance listed, in mol/kg
Conditions: 323.15 K, 101 kPa, Liquid, isopiestic method

CCCC[n+]1cccc(C)c1.O=S(=O)([N-]S(=O)(=O)C(F)(F)F)C(F)(F)F + CCCCO
Conditions	osmotic coefficient
m1 = 0.0539	0.692
m1 = 0.082	0.581
m1 = 0.1023	0.508
m1 = 0.1892	0.403
m1 = 0.3045	0.305
m1 = 0.4112	0.259
m1 = 0.5115	0.238
m1 = 0.8265	0.203
m1 = 1.232	0.179
m1 = 1.58	0.155
m1 = 2.087	0.132
m1 = 2.466	0.12
m1 = 2.878	0.112
m1 = 3.434	0.102

CCCC[n+]1cccc(C)c1.O=S(=O)([N-]S(=O)(=O)C(F)(F)F)C(F)(F)F + CCCO
Conditions	osmotic coefficient
m1 = 0.0318	0.917
m1 = 0.0485	0.78
m1 = 0.0788	0.72
m1 = 0.2157	0.571
m1 = 0.3181	0.487
m1 = 0.417	0.44
m1 = 0.527	0.389
m1 = 0.8342	0.324
m1 = 1.24	0.274
m1 = 1.63	0.229
m1 = 2.053	0.203
m1 = 2.439	0.191
m1 = 2.768	0.182
m1 = 3.304	0.174

CCC[n+]1cccc(C)c1.O=S(=O)([N-]S(=O)(=O)C(F)(F)F)C(F)(F)F + CCCO
Conditions	osmotic coefficient
m1 = 0.0279	0.943
m1 = 0.0456	0.826
m1 = 0.0782	0.699
m1 = 0.0966	0.651
m1 = 0.2052	0.553
m1 = 0.2936	0.504
m1 = 0.3902	0.435
m1 = 0.5073	0.363
m1 = 0.8376	0.294
m1 = 1.261	0.242
m1 = 1.656	0.217
m1 = 2.045	0.196
m1 = 2.425	0.175
m1 = 2.825	0.165
m1 = 3.31	0.159

CC[n+]1cccc(C)c1.O=S(=O)([N-]S(=O)(=O)C(F)(F)F)C(F)(F)F + CCCO
Conditions	osmotic coefficient
m1 = 0.0291	0.924
m1 = 0.0485	0.788
m1 = 0.0836	0.704
m1 = 0.104	0.68
m1 = 0.2111	0.57
m1 = 0.3124	0.496
m1 = 0.4076	0.411
m1 = 0.5148	0.354
m1 = 0.8269	0.297
m1 = 1.23	0.237
m1 = 1.577	0.211
m1 = 2.059	0.18
m1 = 2.455	0.161
m1 = 2.8	0.15
